Here are results for three molecules from patent US20200069607A1, “MOUTHWASH FOR TREATING ORAL CANCERS” (THE BOARD OF REGENTS OF THE UNIVERSITY OF TEXAS SYSTEM, priority 2016, published 2020).

Assay [1] concerns Ca127 cells. Briefly: Calcium imaging of Ca127 cells. Format: cell-based. As to conditions: for effect of inhibitor pre-treatment on calcium influx in response to thymol: Ca127 cells, pre-treatment followed by thymol 400 μM. An excerpt:
(§1) FIGS. 6A-D: Calcium imaging of CHO cells overexpressing TRPA1 (FIG. 6A) or TRPV1 (FIG. 6B). Calcium imaging of cancer cell lines, Ca127 (FIG. 6C) and HeLa (FIG. 6D).
(§2) […]. […] […].

Assay [2] concerns Ca127 (OSCC) cells. Briefly: Cell viability / proliferation (MTS) assay, Ca127 cells. The format is cell-based. As to conditions: treated 24 hours, p<0.001, read-out: IC50, anti-proliferative effect.
Assay [3] deals with T1, TRPA1 (Homo sapiens, UniProt O75762).
T1 construct: expressed in transfected cells; host or cells: CHO cells
Briefly: Calcium imaging of CHO cells overexpressing TRPA1. The format is cell-based.
From the text: as §1

The target in assay [4] is T2, TRPV1 (Homo sapiens, UniProt Q8NER1).
T2 construct: expressed in transfected cells; host or cells: CHO cells
The assay is described as follows: Calcium imaging of CHO cells overexpressing TRPV1. Format: cell-based.
From the text: as §1

Assay [5] has as its system HeLa cells. The assay is described as follows: Calcium imaging of HeLa cells. The format is cell-based. As to conditions: negative for TRPA1, thymol treatment.
From the text: as §1, §2

Assay [6] deals with cleaved PARP (c-PARP). Briefly: Western blot of cleaved PARP, Ca127 cells. The format is cell-based. As to conditions: increasing concentrations of thymol.
From the text: as §2
For orientation: In western blotting, separated proteins are transferred to a membrane and probed.

Assay [7] concerns cleaved PARP (c-PARP). The assay is described as follows: Western blot of cleaved PARP, HeLa cells. Format: cell-based. As to conditions: increasing concentrations of thymol.
From the text: as §2

Assay [8] deals with solid tumors (breast, lung, prostate, colon, cervical). Briefly: Anti-tumor effects against solid tumors (inventor's data). As to conditions: all types of solid tumors (breast, lung, prostate, colon, cervical). An excerpt:
However head and neck cancer is 90% of squamous cell origin.

In assay [9] the test system is HeLa cells. The assay is described as follows: Clonogenic assay, HeLa cells.
From the text: (§3) FIGS. 3A-D: Clonogenic Assay of Ca127 (FIGS. 3A and 3C) and HeLa cells (FIGS. 3B and 3D).
Assay [10] relates to Ca127. The assay is described as follows: Clonogenic assay, Ca127 cells.
From the text: as §3
For assay [11], the system named is HeLa-derived tumors. Briefly: HeLa mouse xenograft, intra-tumor injection.
The subject of assay [12] is Ca127-derived tumors. The assay is described as follows: Ca127 mouse xenograft, intra-tumor injection.
The test system of assay [13] is HeLa (Cervical cancer) cells. The assay is described as follows: Cell viability / proliferation assay, HeLa cells. As to conditions: Homo sapiens, 48 h, read-out: IC50, anti-proliferative effect.

T1 sequence (O75762 whole entry, species assumed): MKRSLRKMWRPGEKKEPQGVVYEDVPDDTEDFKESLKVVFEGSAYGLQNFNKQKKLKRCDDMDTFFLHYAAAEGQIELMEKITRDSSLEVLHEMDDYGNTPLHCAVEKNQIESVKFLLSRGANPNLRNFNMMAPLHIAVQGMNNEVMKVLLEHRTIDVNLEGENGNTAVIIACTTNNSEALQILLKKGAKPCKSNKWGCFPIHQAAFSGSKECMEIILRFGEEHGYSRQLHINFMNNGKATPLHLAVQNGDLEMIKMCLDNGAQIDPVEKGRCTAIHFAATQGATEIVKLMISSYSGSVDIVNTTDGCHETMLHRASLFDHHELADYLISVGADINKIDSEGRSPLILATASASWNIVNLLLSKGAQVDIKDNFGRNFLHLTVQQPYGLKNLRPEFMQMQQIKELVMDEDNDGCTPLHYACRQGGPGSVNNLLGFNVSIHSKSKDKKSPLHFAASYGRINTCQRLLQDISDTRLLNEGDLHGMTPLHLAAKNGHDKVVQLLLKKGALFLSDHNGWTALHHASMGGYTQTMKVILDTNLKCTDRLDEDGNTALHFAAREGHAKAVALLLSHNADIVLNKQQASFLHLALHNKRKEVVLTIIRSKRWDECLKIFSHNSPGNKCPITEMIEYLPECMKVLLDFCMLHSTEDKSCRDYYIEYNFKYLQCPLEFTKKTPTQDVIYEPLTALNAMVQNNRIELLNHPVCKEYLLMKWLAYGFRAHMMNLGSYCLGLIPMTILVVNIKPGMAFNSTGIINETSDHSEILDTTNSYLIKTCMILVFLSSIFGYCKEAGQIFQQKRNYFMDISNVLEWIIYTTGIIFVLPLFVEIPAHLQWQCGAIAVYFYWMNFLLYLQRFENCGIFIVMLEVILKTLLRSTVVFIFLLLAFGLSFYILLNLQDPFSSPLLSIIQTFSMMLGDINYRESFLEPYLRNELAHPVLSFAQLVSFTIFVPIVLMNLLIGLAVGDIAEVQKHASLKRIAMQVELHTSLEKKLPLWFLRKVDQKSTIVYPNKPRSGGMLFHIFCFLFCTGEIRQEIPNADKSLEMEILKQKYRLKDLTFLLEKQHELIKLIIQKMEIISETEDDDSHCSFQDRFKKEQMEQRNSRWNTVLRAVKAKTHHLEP
T2 sequence (Q8NER1 whole entry, species assumed): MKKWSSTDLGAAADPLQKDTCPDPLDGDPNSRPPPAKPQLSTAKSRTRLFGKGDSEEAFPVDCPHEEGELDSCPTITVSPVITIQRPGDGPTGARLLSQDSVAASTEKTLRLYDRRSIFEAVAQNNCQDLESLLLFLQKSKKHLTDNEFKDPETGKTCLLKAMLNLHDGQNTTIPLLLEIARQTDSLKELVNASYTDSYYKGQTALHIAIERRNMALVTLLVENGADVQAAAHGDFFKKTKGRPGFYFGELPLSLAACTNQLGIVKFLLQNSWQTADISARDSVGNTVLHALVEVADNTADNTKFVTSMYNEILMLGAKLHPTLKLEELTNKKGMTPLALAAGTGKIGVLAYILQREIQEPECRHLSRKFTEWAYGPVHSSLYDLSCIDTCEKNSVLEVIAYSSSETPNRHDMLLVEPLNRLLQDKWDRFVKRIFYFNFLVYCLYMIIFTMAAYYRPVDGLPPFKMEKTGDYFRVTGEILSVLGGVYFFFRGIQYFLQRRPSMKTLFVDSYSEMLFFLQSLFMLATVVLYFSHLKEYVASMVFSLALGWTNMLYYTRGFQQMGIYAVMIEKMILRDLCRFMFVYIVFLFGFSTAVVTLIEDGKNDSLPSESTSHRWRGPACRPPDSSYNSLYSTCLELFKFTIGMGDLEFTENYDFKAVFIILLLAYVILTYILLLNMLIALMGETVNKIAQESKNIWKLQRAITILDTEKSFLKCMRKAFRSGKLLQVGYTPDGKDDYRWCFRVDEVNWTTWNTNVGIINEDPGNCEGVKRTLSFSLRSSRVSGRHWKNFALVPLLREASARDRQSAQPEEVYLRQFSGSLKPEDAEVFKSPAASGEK

As to `CC(C)c1ccc(NC(=O)Cn2cnc3c2c(=O)n(C)c(=O)n3C)cc1` [HC030031], in assay [1], the “effect of inhibitor pre-treatment on calcium influx in response to thymol” value is “nearly abolished all calcium influx”.
On to `O=C(O)c1ccc(S(=O)(=O)N(Cc2ccc(OC(F)(F)F)cc2)c2ncc(C(F)(F)F)cc2Cl)cc1` [RQ00203078], for which the “effect of inhibitor pre-treatment on calcium influx in response to thymol” value in assay [1] is recorded as “reduced calcium influx”.
Broadly, the IC50 is the midpoint of a concentration-inhibition curve. On to `Cc1ccc(C(C)C)c(O)c1` [thymol, 2-isopropyl-5-methylphenol], for which the IC50 in [2] and in [13] was 400 µM in each case. In addition, the “TRPA1 channel activation (calcium imaging)” value in assay [3] is given as “activates TRPA1 channels”. Moreover, in assay [4], the “TRPV1 channel activation (calcium imaging)” value is reported as “not TRPV1 channels”. Also, in assay [1] (Ca127 cells expressing TRPA1, thymol 400 μM), the calcium influx entry is recorded as “small calcium influx”. Besides, in assay [5], the calcium response entry was “did not respond”. Besides, the “activation of cleaved PARP (apoptosis)” value in assay [6] and in assay [7] was “dose-dependent activation” in each case. For the same molecule, the anti-tumor effects entry in assay [8] is on record as “anti-tumor effects”. Also, the colony formation result is “abolished colony formation” in assay [9] (HeLa (FIGS. 3A-D), one minute exposure, 10 days); “abolished colony formation” in [9] (HeLa, single two minute exposure, 4.3 mM, ten days); “abolished colony formation” in [10] (Ca127 (FIGS. 3A-D), one minute exposure, 10 days); “abolished colony formation” in [10] (Ca127, single two minute exposure, 4.3 mM, ten days). Moreover, the median tumor volume came out at 500 mm^3 in assay [11] (Day 26 as printed, thymol 4.3 mM every other day for 22 days, control 900 mm^3) and 100 mm^3 in [12] (Day 26, thymol 4.3 mM every other day, control 400 mm^3). The “tumor volume compared to control” value is on record as “significant reduction” in assay [11] (by day 18, remained through day 22, 4.3 mM intra-tumor every other day, p<0.001) and “significant reduction” in [12] (by day 16, 4.3 mM intra-tumor every other day, p<0.001). The average tumor volume in assay [11] (thymol 4.3 mM intra-tumor every other day for 22 days, control 900 mm^3) is given as 500 mm^3; in assay [12] (thymol 4.3 mM intra-tumor every other day for 26 days, control 400 mm^3) it was 90 mm^3.
